Columns and labels:
Ras-GTP = Ras-GTP activation; assay type: cell-based; details: data not shown
Excerpt: (§1) No effect of C20 on Ras-GTP activation or Akt phosphorylation was observed (data not shown). However, C20 mitigated Erk1/2 phosphorylation.

Rac1-Tiam1 interactions = target: T1, Rac1-Tiam1 interactions (Homo sapiens, UniProt P63000); experiment: Rho-GEF exchange assay with purified Tiam1 and Rac1 (Cytoskeleton BK100 kit); assay type: biochemical
T1 construct: purchased Cytoskeleton, Inc. BK100
Experimental: (§2) FIGS. 3A-3C depicts various properties of compound C20. FIG. 3A) Compound C20 inhibits PDGF-mediated Rac1-GTP activity at 0.5 μM in murine-derived neurofibroma cells. After 24-hour starvation in 0.5% BSA/DMEM, Nf1−/− Schwann cells were pretreated with compound C20 at the indicated concentrations. Cells were then stimulated with 50 ng/mL PDGF for 2 minutes and harvested for immunoprecipitation and activity assays. FIG. 3B) Compound C20 specifically interfered with Rac1-Tiam1 interactions at 15 nM in a GEF assay using purified protein. FIG. 3C) In [^3H]-thymidine dose-inhibition experiments, murine derived Nf1−/− Schwann cells were pre-treated with increasing quantities of the known Rac1 inhibitor NSC23766 or with putative Rac1 inhibitor C20.
Rho-GEF exchange experiments using a commercially available kit that measures guanine exchange fluorescence quantification (Cat #BK100; Cytoskeleton, Inc., Denver, Colo.) were conducted to measure GEF inhibition by C20.

Erk1/2 = Erk1/2 phosphorylation; assay type: cell-based
Excerpt: as §1

Rac1-GTP = target: T2, Rac1-GTP (Mus musculus, UniProt P63001); experiment: PDGF-mediated Rac1-GTP activity in Nf1-/- Schwann cells (immunoprecipitation and activity assay); assay type: cell-based; details: murine-derived neurofibroma cells (Nf1-/- Schwann cells), 50 ng/mL PDGF for 2 minutes
T2 construct: endogenous in cells; host or cells: murine-derived Nf1-/- Schwann cells
Experimental: FIG. 2 depicts the inhibition of Rac1-GTP activity by compound C20-26. Compound C20-26 inhibits PDGF-mediated Rac1-GTP activity at 40 nM in murine-derived neurofibroma cells. After 24-hour starvation in 0.5% BSA/DMEM, Nf1−/−Schwann cells were pretreated with compound C20-26 at the indicated concentrations. Cells were then stimulated with 50 ng/mL PDGF for 2 minutes and harvested for immunoprecipitation.
as §2

Akt = Akt phosphorylation; assay type: cell-based; details: data not shown
Excerpt: as §1

Nf1-/- Schwann cells = experiment: PDGF-mediated proliferation of NF1-deficient Schwann cells ([3H]-thymidine); assay type: cell-based, murine
Experimental: as §2
In initial screens assaying platelet derived growth factor (PDGF)-mediated proliferation in NF1-deficient Schwann cells, compound C20 (KM04569, Ryan Scientific) was identified. C20 inhibited Schwann cell proliferation at 2 μM and Rac1GTP activity at 0.5 μM (FIGS. 3A-C). The structure of C20 is shown below:
Several analogs of C20 were identified or synthesized and were then screened using the NF1−/− Schwann cell proliferation assay. The initial set of thirteen analogs were developed (Table 1; First SAR) by making substitutions in the C and D pharmacophore elements.

Rac1 = Rac1 (Homo sapiens, UniProt P63000); details: previous work; cited from earlier work
[1] = previous work; cited from earlier work

O=S(=O)(Oc1cc(Cl)cc(Cl)c1)c1ccc(-c2ccccn2)s1 [Compound C20]
effect on Ras-GTP activation (Ras-GTP): No effect | concentration interfering with Rac1-Tiam1 interactions (Rac1-Tiam1 interactions; GEF assay using purified protein): 15 nM | GEF inhibition (Rac1-Tiam1 interactions; incubating Tiam1 and Rac1): dose-dependent GEF inhibition | effect on Erk1/2 phosphorylation (Erk1/2): mitigated | concentration inhibiting PDGF-mediated Rac1-GTP activity (Rac1-GTP): 0.5 µM | effect on Akt phosphorylation (Akt): No effect | IC50 (Nf1-/- Schwann cells; Mus musculus, murine derived Nf1-/- Schwann cells, approximate, read-out: IC50, [3H]-thymidine dose-inhibition): ~2000 nM | concentration inhibiting Schwann cell proliferation (Nf1-/- Schwann cells; PDGF-mediated proliferation, NF1-deficient Schwann cells): 2 µM

CCn1c2ccccc2c2cc(Nc3ccnc(NCCCN4CCOCC4)n3)ccc21 [EHop-016]
concentration inhibiting Rac1 (Rac1): 1.1 µM

CCN(CC)CCCC(C)Nc1nc(C)cc(Nc2ccc3nc(C)cc(N)c3c2)n1 (stereo not shown) [NSC23766]
toxicity [1]: high toxicity
